Test results: the NIST ThermoML archive (doi:10.1021/je700404u)
Numbers after ± are expanded uncertainties.

Assays:
[1] = refractive index (Na D-line) (dimensionless); conditions: 293.15 K; 101.33 kPa; Liquid; Standard Abbe refractometry
[2] = 293.15 K; 101.33 kPa; Liquid

Row | refractive index [1] | mass density [2] [kg/m3] | SMILES
1 | 1.4065 ± 0.0007 | 929 ± 1 | CCOCCO [2-ethoxyethan-1-ol]
2 | 1.3619 ± 0.0007 | 789 ± 1 | CCO [ethanol]
3 | 1.3287 ± 0.0007 | 791 ± 1 | CO [methanol]

Row | SMILES | refractive index [1] | mass density [2] [kg/m3]
4 | CC(C)=O [acetone] | 1.359 ± 0.0007 | 790 ± 1
